In brackets after ≈: the same amount, converted by molar mass.
Assays:
[1] = system: methicillin resistant Staphylococcus aureus; experiment: Minimum inhibitory concentration against clinically isolated methicillin resistant Staphylococcus aureus; type: cell-based
Procedure: The compound (B) was dissolved in sterilized distilled water, and ofloxacin in 0.1N aqueous potassium hydroxide, to prepare a solution of 5000 μg/ml in concentration each. The above solutions were then diluted with sterilized distilled water to prepare a standard solution with a concentration of the test compound: 1000 μg/ml each. The test was carried out by a method approved by Japan Society of Chemotherapy (ibidem) to measure minimum inhibitory concentration (MIC) against 54 strains of clinically isolated methicillin resistant Staphylococcus aureus, from which there were calculated a range of MIC (MICrange) of the test compound against these resistant strains, a minimum concentration for inhibiting the growth of the strains by 50% (MIC50) and a minimum concentration for inhibiting the growth of the strains by 90% (MIC90).

[2] = system: bacteria; conditions: prior art, U.S. Pat. No. 4,382,892; cited from earlier work
[3] = system: E. coli KC-14; experiment: Effect on treatment of infectiousness of the genito-urinary tract; type: in vivo, ICR female mice; conditions: Escherichia coli, KC14, 48 h; E. coli KC-14, 5.6×10^5 CFU/mouse into urinary bladder; oral; not more than 10^4 living bacteria/1 g of kidney regarded as effective
Procedure: 2. Test microorganism and inoculum size E. coli KC-14 (5.6×10^5 CFU/mouse) 3. Method:
A microorganism solution (0.1 ml) prepared in the same manner as described in Experiment 3 was introduced into urinary bladder through urinary tract of ICR female mice (5 weeks age, weighing 20 to 22 g, 5 mice in each group), and then urinary meatus was clasped with clip for 4 hours to infect the animals. After taking off the clip, the compound (B) of the present invention dissolved in sterilized distilled water or ofloxacin suspended in 0.5% aqueous sodium carboxymethyl cellulose solution was orally administered to mice. Two days after the infection, mice kidneys were taken out and weighed, to which PBS (Dulbecco's phosphate buffered saline) was added and the mixture was homogenized. The homogenate was then diluted with PBS and inoculated onto a plate of modified Drigalski Agar (BTB lactose agar "Nissui", made by Nissui Seiyaku K.K., Japan) and cultured at 37° C. for 18 hours. The number of the colonies of infectious bacteria grown on the plate was counted. The number of living bacteria per 1 g of kidney was calculated from the number of colonies and the kidney weight. The living bacteria number/1 g of kidney of not more than 10^4 was regarded as effective and an effective dose for 50% mice (ED50) was calculated by Weil method.

SMILES: CC1COc2c(N3CCN(C)CC3)c(F)cc3c(=O)c(C(=O)O)cn1c23 (racemic) [Ofloxacin, reference compound]
- MIC ([1]; 54 strains of clinically isolated methicillin resistant Staphylococcus aureus): 0.39 to 1.56 µg/mL (≈ 1.08 to 4.32 µM)
- MIC50 ([1]; Staphylococcus aureus, minimum concentration for inhibiting the growth of the strains by 50%, 54 strains): 0.39 µg/mL (≈ 1.08 µM)
- MIC90 ([1]; Staphylococcus aureus, minimum concentration for inhibiting the growth of the strains by 90%, 54 strains): 1.56 µg/mL (≈ 4.32 µM)
- antibacterial activity (in words) [2]: excellent antibacterial activity
- ED50 [3]: 50 mg/kg

From patent publication US4808584A, “Quinolinecarboxylic acid derivatives and antibacterial agent containing the same” (Kanebo, Ltd., priority 1987, dated 1989)
